Where two headings read alike, the source gives them in different places.
Key:
[1] = cited from earlier work; for Purity after storage: expressed as a percentage of pure free pseudomonic acid
[2] = thermal stability on storage (HPLC assay, Karl Fischer water, HPLC impurities); assay type: physicochemical; design: Total Impurity: unit not given here
Method: As used herein, the term “assay” refers to a determination of purity/presence of a quantity of a substance as described by the European Pharmacopoeia (“EP”). EUROPEAN PHARMACOPOEIA, Fourth Edition, pp 1602-1604, Council of Europe, Strasbourg, 2001. The assay is done with high pressure liquid chromatography (“HPLC”).
As used herein, the term “total impurity” refers to the sum of all areas under the peaks of impurities as described by the European Pharmacopoeia. It is determined by another HPLC method and is different than the assay.
The present invention provides for amorphous mupirocin calcium with high thermal stability. Thermal stability is defined as the ability to resist chemical degradation during storage, especially in light of the conditions during storage. The higher purity and […] of amorphous mupirocin calcium makes it less susceptible to chemical degradation during storage.
Glass ampoule in Aluminum laminate bag with silica gel was used as the packing system.
Relative humidity was exactly 60%.
The water content was measured by the Karl Fischer method.
High pressure liquid chromatography (HPLC) was performed on a Zorbax® C-8 (5 um; 250×4.6 mm), reverse phase column with ammonium acetate buffer solution in water: tetrahydrofuran mixture as eluent. Detected by U.V. spectroscopy at λ=240 nm.
The assay also used the same HPLC instruments.

[3] = Baker et al., Column 1, Lines 31-33; cited from earlier work
[4] = thermal stability reported by Baker et al. (purity after storage); assay type: physicochemical
Text: The Baker et al. patents disclose preparing amorphous form of mupirocin calcium by crystallization from an aqueous solution consisting of 50% methanol followed by trituration with dry ether.
Baker et al. expresses its assay in relation to psuedomonic acid. The assay of the present invention is expressed differently, as illustrated by Table-1.
In connection with amorphous mupirocin calcium, the assay of the present invention can be converted into the assay expressed as in Baker et al. by multiplying with a factor of 0.9637. This 89.9% assay of Baker et al. corresponds to a 93.29% assay as calculated by the method of the present invention.
In connection with mupirocin calcium dihydrate, the 92.1% assay of Baker et al. corresponds to a 98.88% assay as expressed by the present invention.

[5] = system: Gram positive bacteria (e.g. Staphylococcus aureus, Streptococcus pyogenes, Streptococcus pneumoniae, Klebsiella pneumoniae) and some Gram negative bacteria (e.); details: mainly Gram positive and some Gram negative bacteria; cited from earlier work
[6] = both for humans and animals; cited from earlier work
[7] = according to the maker of Bactroban, cited from earlier work
[8] = 1 Kg batch, 0 months at 2–8° C.
[9] = 1 Kg batch, 0.5 months at 2–8° C.
[10] = 1 Kg batch, 0.5 months at 25° C.
[11] = 1 Kg batch, 1.0 months at 2–8° C.
[12] = 1 Kg batch, 2.0 months at 2–8° C.
[13] = 187.2 grams batch, 2° C.-8° C. 60% RH, 0 month
[14] = 187.2 grams batch, 2° C.-8° C. 60% RH, 1 month
[15] = 187.2 grams batch, 2° C.-8° C. 60% RH, 2 months
[16] = 187.2 grams batch, 2° C.-8° C. 60% RH, 3 months
[17] = 187.2 grams batch, 25° C./60% RH, 0 month
[18] = 187.2 grams batch, 25° C./60% RH, 1 month
[19] = 187.2 grams batch, 25° C./60% RH, 2 months
[20] = 187.2 grams batch, 25° C./60% RH, 3 months

SMILES: C/C(=C\C(=O)OCCCCCCCCC(=O)[O-])C[C@@H]1OC[C@H](C[C@@H]2O[C@H]2[C@@H](C)[C@H](C)O)[C@@H](O)[C@H]1O.C/C(=C\C(=O)OCCCCCCCCC(=O)[O-])C[C@@H]1OC[C@H](C[C@@H]2O[C@H]2[C@@H](C)[C@H](C)O)[C@@H](O)[C@H]1O.O.O.[Ca+2] [Anhydrous amorphous mupirocin calcium, mupirocin calcium]
- Purity after storage ([1]; 2 weeks, 37° C.): 87.83%
- Purity after storage ([1]; 2 weeks, 50° C.): 72.0%
- Purity after storage ([1]; 2 weeks, 80° C.): 12.58%
- Purity after storage ([1]; 8 days, 80° C.): 26.07%
- Purity after storage ([1]; 10 days, 50° C.): 74.88%
- thermal stability ([1]; Baker et al., Column 1, Lines 31-33): poor thermal stability
- deterioration at high temperatures ([1]; chart in Columns 8 and 9 of the '093 patent): rapid deterioration at high temperatures
- level of impurity MUP II (impurity E in the EP) ([2]; after storage for one month): more than 1%
- total level of impurities (not assay) ([2]; after two months of storage, FIGS. 9 and 10): more than 3.5%
- water solubility [3]: sparingly water soluble
- Purity after storage ([4]; 2 weeks, 37° C., expressed as a percentage of mupirocin calcium anhydrous): 91.14%
- Purity after storage ([4]; 2 weeks, 50° C., expressed as a percentage of mupirocin calcium anhydrous): 74.71%
- Purity after storage ([4]; 2 weeks, 80° C., expressed as a percentage of mupirocin calcium anhydrous): 13.05%
- Purity after storage ([4]; 8 days, 80° C., expressed as a percentage of mupirocin calcium anhydrous): 27.05%
- Purity after storage ([4]; 10 days, 50° C., expressed as a percentage of mupirocin calcium anhydrous): 77.70%

SMILES: C/C(=C\C(=O)OCCCCCCCCC(=O)O)C[C@@H]1OC[C@H](C[C@@H]2O[C@H]2[C@@H](C)[C@H](C)O)[C@@H](O)[C@H]1O [Crystalline mupirocin calcium dihydrate, mupirocin calcium dihydrate]
- Purity after storage ([1]; 2 weeks, 37° C., calcium dihydrate): 92.28%
- Purity after storage ([1]; 2 weeks, 50° C., calcium dihydrate): 90.90%
- Purity after storage ([1]; 2 weeks, 80° C., calcium dihydrate): 86.57%
- Purity after storage ([1]; 8 days, 80° C., calcium dihydrate): 89.33%
- Purity after storage ([1]; 10 days, 50° C., calcium dihydrate): 91.08%
- Purity after storage ([4]; 2 weeks, 37° C., expressed as a percentage of mupirocin calcium dihydrate): 99.08%
- Purity after storage ([4]; 2 weeks, 50° C., expressed as a percentage of mupirocin calcium dihydrate): 97.60%
- Purity after storage ([4]; 2 weeks, 80° C., expressed as a percentage of mupirocin calcium dihydrate): 92.95%
- Purity after storage ([4]; 8 days, 80° C., expressed as a percentage of mupirocin calcium dihydrate): 95.91%
- Purity after storage ([4]; 10 days, 50° C., expressed as a percentage of mupirocin calcium dihydrate): 97.79%

SMILES: C/C(=C\C(=O)OCCCCCCCCC(=O)O)C[C@@H]1OC[C@H](C[C@@H]2O[C@H]2[C@@H](C)[C@H](C)O)[C@@H](O)[C@H]1O [Pseudomonic acid A, 9-{4[5S(2S,3S-epoxy-5S-hydroxy-4S-methylhexyl)-3R,4R-dihydroxy-tetrahydropyran-2S-yl]-3-methylbut-2(E)-enoyloxy}nonanoic acid]
- minimal inhibiting concentration [5]: 0.02 to 0.5 µg/mL
- Purity after storage ([1]; 2 weeks, 37° C.): 90.61%
- Purity after storage ([1]; 2 weeks, 50° C.): 51.18%
- Purity after storage ([1]; 2 weeks, 80° C.): 0%
- Purity after storage ([1]; 8 days, 80° C.): 0%
- Purity after storage ([1]; 10 days, 50° C.): 71.59%
- toxicity [6]: very low toxicity

SMILES: C/C(=C\C(=O)OCCCCCCCCC(=O)[O-])C[C@@H]1OC[C@H](C[C@@H]2O[C@H]2[C@@H](C)[C@H](C)O)[C@@H](O)[C@H]1O.C/C(=C\C(=O)OCCCCCCCCC(=O)[O-])C[C@@H]1OC[C@H](C[C@@H]2O[C@H]2[C@@H](C)[C@H](C)O)[C@@H](O)[C@H]1O.O.O.[Ca+2] [amorphous mupirocin calcium, mupirocin calcium]
- Assay [2, 8]: 98.5
- Water [2, 8]: 1.2
- Assay ([2]; 1 Kg batch, 0 months at 25° C.): 98.5
- Water ([2]; 1 Kg batch, 0 months at 25° C.): 1.5
- Assay [2, 9]: 95.2
- Total Impurity [2, 9]: 2.71
- Water [2, 9]: 1.3
- Assay [2, 10]: 97.4
- Total Impurity [2, 10]: 2.83
- Water [2, 10]: 1.2
- Assay ([2]; 1 Kg batch, 1 month at 25° C.): 98.3
- Total Impurity ([2]; 1 Kg batch, 1 month at 25° C.): 3.18
- Water ([2]; 1 Kg batch, 1 month at 25° C.): 1.9
- Assay [2, 11]: 95.5
- Total Impurity [2, 11]: 2.88
- Water [2, 11]: 1.9
- Assay [2, 12]: 96.7
- Total Impurity [2, 12]: 2.86
- Water [2, 12]: 1.6
- Assay ([2]; 1 Kg batch, 2 months at 25° C.): 96.5
- Total Impurity ([2]; 1 Kg batch, 2 months at 25° C.): 3.21
- Water ([2]; 1 Kg batch, 2 months at 25° C.): 1.5
- Assay (HPLC) [2, 13]: 96.0%
- Description [2, 13]: White
- Impurities (HPLC) Imp. C [2, 13]: 1.31%
- Impurities (HPLC) MUP II [2, 13]: 0.31%
- Impurities (HPLC) Total Impurities [2, 13]: 2.22%
- Water [2, 13]: 0.6%
- Assay (HPLC) [2, 14]: 95.6%
- Description [2, 14]: White
- Water [2, 14]: 0.8%
- Assay (HPLC) [2, 15]: 95.3%
- Description [2, 15]: White
- Impurities (HPLC) Imp. C [2, 15]: 1.32%
- Impurities (HPLC) MUP II [2, 15]: 0.41%
- Impurities (HPLC) Total Impurities [2, 15]: 2.43%
- Water [2, 15]: 0.7%
- Assay (HPLC) [2, 16]: 96.1%
- Description [2, 16]: White
- Impurities (HPLC) Imp. C [2, 16]: 1.35%
- Impurities (HPLC) MUP II [2, 16]: 0.42%
- Impurities (HPLC) Total Impurities [2, 16]: 2.62%
- Water [2, 16]: 1.1%
- Assay (HPLC) [2, 17]: 96.0%
- Description [2, 17]: White powder
- Impurities (HPLC) Imp. C [2, 17]: 1.31%
- Impurities (HPLC) MUP II [2, 17]: 0.31%
- Impurities (HPLC) Total Impurities [2, 17]: 2.22%
- Water [2, 17]: 0.6%
- Assay (HPLC) [2, 18]: 97.5%
- Description [2, 18]: White
- Water [2, 18]: 0.8%
- Assay (HPLC) [2, 19]: 94.1%
- Description [2, 19]: White
- Impurities (HPLC) Imp. C [2, 19]: 1.34%
- Impurities (HPLC) MUP II [2, 19]: 0.77%
- Impurities (HPLC) Total Impurities [2, 19]: 3.02%
- Water [2, 19]: 0.8%
- Assay (HPLC) [2, 20]: 95.9%
- Description [2, 20]: White
- Impurities (HPLC) Imp. C [2, 20]: 1.37%
- Impurities (HPLC) MUP II [2, 20]: 0.89%
- Impurities (HPLC) Total Impurities [2, 20]: 3.25%
- Water [2, 20]: 1.0%
- total impurity content ([2]; after 2 months): about 3%
- Assay ([2]; after 2 months of storage at about 25° C. and at about 2-8° C.): about 96%
- total level of impurity (not assay) ([2]; after at least two months of storage at 25° C.): less than 3.5%
- level of impurity MUP II (impurity E in the EP) ([2]; storage at 25° C. and RH 60% for at least two months): ≤ 1%

SMILES: C/C(=C\C(=O)OCCCCCCCCC(=O)[O-])C[C@@H]1OC[C@H](C[C@@H]2O[C@H]2[C@@H](C)[C@H](C)O)[C@@H](O)[C@H]1O.C/C(=C\C(=O)OCCCCCCCCC(=O)[O-])C[C@@H]1OC[C@H](C[C@@H]2O[C@H]2[C@@H](C)[C@H](C)O)[C@@H](O)[C@H]1O.O.O.[Ca+2] [mupirocin calcium]
- side effects ([7]; administered intravenously at 250 mg): without any major side effects
- side effects ([7]; administered orally at 500 mg): without any major side effects

From patent publication US7737177B2, “Processes for preparing crystalline and amorphous mupirocin calcium” (priority 2001, dated 2010)
